Source: US10308644B2, “Heterocyclic compounds as immunomodulators” (Incyte Corporation, priority 2016, dated 2019)

Target: PD-1/PD-L1 (Homo sapiens (Human), UniProt Q9NZQ7)
Assay: PD-1/PD-L1 Homogeneous Time-Resolved Fluorescence (HTRF) Binding Assay
Settings: recombinant human PD-1 (3 nM) and PD-L1 (10 nM), 25° C., PBS pH 7.4
Method in brief: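 Fc-tagged human PD-1 (25-167, 3 nM) and His-tagged PD-L1 (19-238, 10 nM) preincubated with inhibitor 40 min in PBS pH 7.4, 0.05% Tween-20, 0.1% BSA, 1% DMSO, 25 °C. Binding detected by HTRF (Eu anti-IgG/APC anti-His, 665/620 nm) after 60 min; IC50 from percent control activity.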

PD-1/PD-L1, sequence (Q9NZQ7 19-238): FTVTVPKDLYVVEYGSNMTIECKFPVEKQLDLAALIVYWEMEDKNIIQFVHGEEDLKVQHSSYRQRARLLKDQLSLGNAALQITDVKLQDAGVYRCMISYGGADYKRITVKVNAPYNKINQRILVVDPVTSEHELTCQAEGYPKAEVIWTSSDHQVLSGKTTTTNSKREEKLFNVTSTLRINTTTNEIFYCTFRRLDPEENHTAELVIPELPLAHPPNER

IC50, ≤ 10 nM:
Cc1c(Nc2ncnc3cc(CN4CC[C@@H](O)C4)cnc23)cccc1-c1cccc(-c2nc3cc(CN4CCC[C@H](C(=O)O)C4)cc(C#N)c3o2)c1C [Example 206, (S)-1-((7-cyano-2-(3′-(7-(((R)-3-hydroxypyrrolidin-1-yl)methyl)pyrido [3,2-d]pyrimidin-4-ylamino)-2,2′-dimethylbiphenyl-3-yl)benzo[d]oxazol-5-yl)methyl)piperidine-3-carboxylic acid]
Cc1c(-c2nc3c(o2)CN(C(=O)CN2CCCC[C@H]2C(=O)O)C3)cccc1-c1cccc(-c2nc3cc(CN4CC[C@@H](O)C4)cc(C#N)c3o2)c1C [Example 133, (S)-1-(2-(2-(3′-(7-cyano-5-(((R)-3-hydroxypyrrolidin-1-yl)methyl)benzo[d]oxazol-2-yl)-2,2′-dimethyl-[1,1′-biphenyl]-3-yl)-4,6-dihydro-5H-pyrrolo[3,4-d]oxazol-5-yl)-2-oxoethyl)piperidine-2-carboxylic acid]
Cc1c(Nc2nccc3cc(CNC(C)(C)CO)cnc23)cccc1-c1cccc(-c2nc3cc(CN4CC[C@@](C)(C(=O)O)C4)cc(C#N)c3o2)c1C [Example 198, (R)-1-((7-cyano-2-(3′-(3-((1-hydroxy-2-methylpropan-2-ylamino)methyl)-1,7-naphthyridin-8-ylamino)-2,2′-dimethylbiphenyl-3-yl)benzo[d]oxazol-5-yl)methyl)-3-methylpyrrolidine-3-carboxylic acid]
Cc1c(Nc2nccc3cc(CN4CC[C@@H](O)C4)cnc23)cccc1-c1cccc(-c2nc3cc(CN4CC5(CC(C(=O)O)C5)C4)cc(C#N)c3o2)c1C [Example 177, 2-((7-cyano-2-(3′-(3-(((R)-3-hydroxypyrrolidin-1-yl)methyl)-1,7-naphthyridin-8-ylamino)-2,2′-dimethylbiphenyl-3-yl)benzo[d]oxazol-5-yl)methyl)-2-azaspiro[3,3]heptane-6-carboxylic acid]
Cc1c(Nc2nccc3cc(CN4CCC(C(=O)O)CC4)cnc23)cccc1-c1cccc(-c2nc3cc(CN[C@@H](C)CO)cc(C#N)c3o2)c1C [Example 213, (S)-1-((8-(3′-(7-cyano-5-((1-hydroxypropan-2-ylamino)methyl)benzo[d]oxazol-2-yl)-2,2′-dimethylbiphenyl-3-ylamino)1,7-naphthyridin-3-yl)methyl)piperidine-4-carboxylic acid]
Cc1c(Nc2nccc3cc(CN4CC[C@H](O)C4)cnc23)cccc1-c1cccc(-c2nc3cc(CN4CCCC[C@H]4C(=O)O)cc(Cl)c3o2)c1C [Example 5, (S)-1-((7-chloro-2-(3′-((3-(((S)-3-hydroxypyrrolidin-1-yl)methyl)-1,7-naphthyridin-8-yl)amino)-2,2′-dimethyl-[1,1′-biphenyl]-3-yl)benzo[d]oxazol-5-yl)methyl)piperidine-2-carboxylic acid]
Cc1c(-c2nc3cc(CN4CC[C@@H](C(=O)O)C4)cc(C#N)c3o2)cccc1-c1cccc(NC(=O)c2nc3c(n2C)CCN(C)C3)c1Cl [Example 53, (R)-1-((2-(2′-chloro-3′-(1,5-dimethyl-4,5,6,7-tetrahydro-1H-imidazo[4,5-c]pyridine-2-carboxamido)-2-methylbiphenyl-3-yl)-7-cyanobenzo[d]oxazol-5-yl)methyl)pyrrolidine-3-carboxylic acid]
Cc1c(-c2nc3cc(CN4CC[C@@H](C(=O)O)C4)cc(Cl)c3o2)cccc1-c1cccc(N2CCC(N[C@H]3C[C@@H](O)C3)CC2)c1Cl [Example 45, (R)-1-((7-chloro-2-(2′-chloro-3′-(4-((1s,3s)-3-hydroxycyclobutylamino)piperidin-1-yl)-2-methylbiphenyl-3-yl)benzo[d]oxazol-5-yl)methyl)pyrrolidine-3-carboxylic acid]
Cc1c(Nc2nccc3c(CN4CC[C@H](O)C4)ccnc23)cccc1-c1cccc(-c2nc3cc(CN4CC[C@H](C(=O)O)C4)cc(C#N)c3o2)c1C [Example 144, (S)-1-((7-cyano-2-(3′-((4-(((S)-3-hydroxypyrrolidin-1-yl)methyl)-1,7-naphthyridin-8-yl)amino)-2,2′-dimethyl-[1,1′-biphenyl]-3-yl)benzo[d]oxazol-5-yl)methyl)pyrrolidine-3-carboxylic acid]
Cc1c(-c2nc3cc(CN4CC[C@@H](C(=O)O)C4)cc(C#N)c3o2)cccc1-c1cccc(Nc2nccc3cc(CN4CC[C@@H](O)C4)cnc23)c1Cl [Example 84, (R)-1-((2-(2′-chloro-3′-(3-(((R)-3-hydroxypyrrolidin-1-yl)methyl)-1,7-naphthyridin-8-ylamino)-2-methylbiphenyl-3-yl)-7-cyanobenzo[d]oxazol-5-yl)methyl)pyrrolidine-3-carboxylic acid]
Cc1c(Nc2nccc3cc(CN4CC[C@@H](C(=O)O)C4)cnc23)cccc1-c1cccc(-c2nc3cc(CNC[C@H](C)O)cc(C#N)c3o2)c1C [Example 210, (R)-1-((8-(3′-(7-cyano-5-(((S)-2-hydroxypropylamino)methyl)benzo[d]oxazol-2-yl)-2,2′-dimethylbiphenyl-3-ylamino)-1,7-naphthyridin-3-yl)methyl)pyrrolidine-3-carboxylic acid]
Cc1c(-c2nc3c(o2)CN(C(=O)CN2CCN(C)CC2)C3)cccc1-c1cccc(-c2nc3cc(CN4CC5CC4CC5C(=O)O)cc(C#N)c3o2)c1C (centres unmarked) [Example 253, 2-((7-cyano-2-(2,2′-dimethyl-3,-(5-(2-(4-methylpiperazin-1-yl)acetyl)-5,6-dihydro-4H-pyrrolo[3,4-d]oxazol-2-yl)-[1,1′-biphenyl]-3-yl)benzo[d]oxazol-5-yl)methyl)-2-azabicyclo[2.2.1]heptane-5-carboxylic acid]
Cc1c(-c2nc3cc(CN4CC[C@H](C(=O)O)C4)cc(Cl)c3o2)cccc1-c1cccc(Nc2nccc3cc(CN4CC[C@H](O)C4)cnc23)c1Cl [Example 32, (S)-1-((7-chloro-2-(2′-chloro-3′-(3-(((S)-3-hydroxypyrrolidin-1-yl)methyl)-1,7-naphthyridin-8-ylamino)-2-methylbiphenyl-3-yl)benzo[d]oxazol-5-yl)methyl)pyrrolidine-3-carboxylic acid]
Cc1c(-c2nc3cc(CN4CC[C@@H](C(=O)O)C4)cc(C#N)c3o2)cccc1-c1cccc(NC(=O)c2nc3c(n2C)CC(C)N(C)C3)c1Cl (stereo partly drawn) [Example 160, (3R)-1-((2-(2′-chloro-2-methyl-3′-(1,5,6-trimethyl-4,5,6,7-tetrahydro-1H-imidazo[4,5-c]pyridine-2-carboxamido)biphenyl-3-yl)-7-cyanobenzo[d]oxazol-5-yl)methyl)pyrrolidine-3-carboxylic acid]
Cc1c(-c2nc3cc(CN4CC[C@H](C(=O)O)C4)cc(C#N)c3o2)cccc1-c1cccc(NC(=O)c2nc3c(n2C)CCN(C)C3)c1Cl [Example 50, (S)-1-((2-(2′-chloro-3′-(1,5-dimethyl-4,5,6,7-tetrahydro-1H-imidazo[4,5-c]pyridine-2-carboxamido)-2-methylbiphenyl-3-yl)-7-cyanobenzo[d]oxazol-5-yl)methyl)pyrrolidine-3-carboxylic acid]
Cc1c(-c2nc3cc(CN4CC[C@@](C)(C(=O)O)C4)cc(C#N)c3o2)cccc1-c1cccc(Nc2nccc3cc(CN4CC[C@@H](O)C4)cnc23)c1Cl [Example 187, (R)-1-((2-(2′-chloro-3′-(3-(((R)-3-hydroxypyrrolidin-1-yl)methyl)-1,7-naphthyridin-8-ylamino)-2-methylbiphenyl-3-yl)-7-cyanobenzo[d]oxazol-5-yl)methyl)-3-methylpyrrolidine-3-carboxylic acid]
Cc1c(Nc2nccc(CN3CC[C@@H](O)C3)c2F)cccc1-c1cccc(-c2nc3cc(CN4CC[C@@H](C(=O)O)C4)cc(C#N)c3o2)c1C [Example 102, (R)-1-((7-cyano-2-(3′-(3-fluoro-4-(((R)-3-hydroxypyrrolidin-1-yl)methyl)pyridin-2-ylamino)-2,2′-dimethylbiphenyl-3-yl)benzo[d]oxazol-5-yl)methyl)pyrrolidine-3-carboxylic acid]
Cc1c(-c2nc3c(o2)CN(C(=O)CN2CC(C)(O)C2)C3)cccc1-c1cccc(-c2nc3cc(CN4CC[C@@H](C(=O)O)C4)cc(C#N)c3o2)c1C [Example 129, (R)-1-((7-cyano-2-(3′-(5-(2-(3-hydroxy-3-methylazetidin-1-yl)acetyl)-5,6-dihydro-4H-pyrrolo[3,4-d]oxazol-2-yl)-2,2′-dimethyl-[1,1′-biphenyl]-3-yl)benzo[d]oxazol-5-yl)methyl)pyrrolidine-3-carboxylic acid]
Cc1c(-c2nc3cc(CN4CC[C@H](C(=O)O)C4)cc(C#N)c3o2)cccc1-c1cccc(NC(=O)c2nc3c(n2C)CCNC3)c1Cl [Example 92, (S)-1-((2-(2′-chloro-2-methyl-3′-(1-methyl-4,5,6,7-tetrahydro-1H-imidazo[4,5-c]pyridine-2-carboxamido)biphenyl-3-yl)-7-cyanobenzo[d]oxazol-5-yl)methyl)pyrrolidine-3-carboxylic acid]
CCN1CCc2c(nc(C(=O)Nc3cccc(-c4cccc(-c5nc6cc(CN7CC[C@@H](C(=O)O)C7)cc(C#N)c6o5)c4C)c3Cl)n2C)C1 [Example 143, (R)-1-((2-(2′-chloro-3′-(5-ethyl-1-methyl-4,5,6,7-tetrahydro-1H-imidazo[4,5-c]pyridine-2-carboxamido)-2-methyl-[1,1′-biphenyl]-3-yl)-7-cyanobenzo[d]oxazol-5-yl)methyl)pyrrolidine-3-carboxylic acid]
